Data reported in ChEMBL document CHEMBL6087474, “Discovery of an Efficacious RET PROTAC Degrader with Enhanced Antiproliferative Activity against Resistant Cancer Cells Harboring RET Solvent-Front Mutations” (J Med Chem, 2025).
Calls of active or inactive are those of the source. The rule behind the calls is not given here.

Legend:
BaF3 [1] = assay: PROTAC activity at CRBN/KIF5B-RET (unknown origin) expressed in mouse BaF3 cells assessed as induction of RET degradation at 10 nM measured after 6 hrs by Western blot analysis relative to control; assay type: cell-based
BaF3 [2] = assay: PROTAC activity at CRBN/KIF5B-RET (unknown origin) expressed in mouse BaF3 cells assessed as induction of RET degradation at 100 nM measured after 6 hrs by Western blot analysis relative to control; assay type: cell-based
[3] = molecular target: Protein cereblon/Proto-oncogene tyrosine-protein kinase receptor Ret/Kinesin-1 heavy chain (Homo sapiens) (UniProt P07949+P33176+Q96SW2); assay: PROTAC activity at CRBN/KIF5B-RET in human LC-2-ad cells assessed as induction of RET degradation at 11.1 nM measured after 6 hrs by Western blotting analysis relative to control; assay type: cell-based
[4] = PROTAC activity at CRBN/KIF5B-RET-V804M mutant (unknown origin) expressed in mouse BaF3 cells assessed as induction of RET degradation measured after 6 hrs by Western blot analysis; assay type: cell-based; conditions: BaF3, 6 h
[5] = PROTAC activity at CRBN/KIF5B-RET-G810C mutant (unknown origin) expressed in mouse BaF3 cells assessed as induction of RET degradation measured after 6 hrs by Western blot analysis; assay type: cell-based; conditions: BaF3, 6 h
[6] = molecular target: Protein cereblon/Eukaryotic peptide chain release factor GTP-binding subunit ERF3A (Mus musculus) (UniProt Q8C7D2+Q8R050); assay: PROTAC activity at CRBN/GSPT1 in mouse BaF3 cells overexpressing KIF5B-RET assessed as induction of GSPT1 degradation at 10 to 1000 nM incubated for 6 hrs by Western blot analysis; assay type: cell-based; conditions: dose 10-1000 nM
BaF3 [7] = assay: PROTAC activity at CRBN/CK1alpha in mouse BaF3 cells overexpressing KIF5B-RET assessed as induction of […] at 10 to 1000 nM incubated for 6 hrs by Western blot analysis; assay type: cell-based; conditions: dose 10-1000 nM
BaF3 [8] = assay: Antiproliferative activity against mouse BaF3 cells stably expressing CCDC6-RET-G810C mutant incubated for 72 hrs by CCK-8 assay; assay type: functional, cell-based; conditions: BaF3, 72 h
[9] = Potency index, ratio of selpercatinib IC50 to test compound IC50 for antiproliferative activity against mouse BaF3 cells stably expressing CCDC6-RET-G810C mutant incubated for 72 hrs by CCK-8 assay; assay type: functional
[10] = Effect on Shc protein level in mouse BaF3 cells stably expressing wildtype KIF5B-RET assessed as fold change at 33.3 nM measured after 6 hrs by Western blot analysis; assay type: functional
[11] = Effect on Shc protein level in mouse BaF3 cells stably expressing wildtype KIF5B-RET assessed as fold change at 100 nM measured after 6 hrs by Western blot analysis; assay type: functional
[12] = Effect on RET protein level in mouse BaF3 cells stably expressing KIF5B-RET-V804M mutant assessed as fold change at 33.3 nM measured after 6 hrs by Western blot analysis (reference value: 1); assay type: functional
[13] = Effect on RET protein level in mouse BaF3 cells stably expressing KIF5B-RET-V804M mutant assessed as fold change at 300 nM measured after 6 hrs by Western blot analysis (reference value: 1); assay type: functional
[14] = Effect on Shc protein level in mouse BaF3 cells stably expressing KIF5B-RET-V804M mutant assessed as fold change at 11.1 nM measured after 6 hrs by Western blot analysis (reference value: 1); assay type: functional
[15] = Effect on Shc protein level in mouse BaF3 cells stably expressing KIF5B-RET-V804M mutant assessed as fold change at 300 nM measured after 6 hrs by Western blot analysis (reference value: 1); assay type: functional
[16] = Effect on Shc protein level in mouse BaF3 cells stably expressing KIF5B-RET-G810C mutant assessed as fold change at 100 nM measured after 6 hrs by Western blot analysis (reference value: 1); assay type: functional
[17] = Effect on RET protein level in mouse BaF3 cells stably expressing KIF5B-RET-G810R mutant assessed as fold change at 11.1 nM measured after 6 hrs by Western blot analysis (reference value: 1); assay type: functional
[18] = Effect on Shc protein level in mouse BaF3 cells stably expressing KIF5B-RET-G810R mutant assessed as fold change at 11.1 nM measured after 6 hrs by Western blot analysis (reference value: 1); assay type: functional
[19] = Induction of apoptosis in mouse BaF3 cells stably expressing wildtype KIF5B-RET fusion protein assessed as viable cells at 11.1 nM measured after 48 hrs by Annexin V-FITC/7-AAD staining based flow cytometric analysis (reference value: 86.65 %); assay type: functional; conditions: read-out: Activity
[20] = Induction of apoptosis in mouse BaF3 cells stably expressing wildtype KIF5B-RET fusion protein assessed as late apoptotic cells at 11.1 nM measured after 48 hrs by Annexin V-FITC/7-AAD staining based flow cytometric analysis (reference value: 1.03 %); assay type: functional
[21] = Induction of apoptosis in mouse BaF3 cells stably expressing wildtype KIF5B-RET fusion protein assessed as late apoptotic cells at 33.3 nM measured after 48 hrs by Annexin V-FITC/7-AAD staining based flow cytometric analysis (reference value: 1.03 %); assay type: functional
[22] = Induction of apoptosis in mouse BaF3 cells stably expressing wildtype KIF5B-RET fusion protein assessed as necrotic cells at 33.3 nM measured after 48 hrs by Annexin V-FITC/7-AAD staining based flow cytometric analysis (reference value: 2.40 %); assay type: functional
[23] = Induction of apoptosis in mouse BaF3 cells stably expressing wildtype KIF5B-RET fusion protein assessed as viable cells at 300 nM measured after 48 hrs by Annexin V-FITC/7-AAD staining based flow cytometric analysis (reference value: 86.65 %); assay type: functional; conditions: read-out: Activity
[24] = Induction of apoptosis in mouse BaF3 cells stably expressing KIF5B-RET-G810C mutant assessed as viable cells at 33.3 nM measured after 48 hrs by Annexin V-FITC/7-AAD staining based flow cytometric analysis (reference value: 86.58 %); assay type: functional; conditions: read-out: Activity
[25] = Induction of apoptosis in mouse BaF3 cells stably expressing KIF5B-RET-G810C mutant assessed as late apoptotic cells at 100 nM measured after 48 hrs by Annexin V-FITC/7-AAD staining based flow cytometric analysis (reference value: 1.96 %); assay type: functional
[26] = Induction of apoptosis in mouse BaF3 cells stably expressing KIF5B-RET-G810C mutant assessed as late apoptotic cells at 900 nM measured after 48 hrs by Annexin V-FITC/7-AAD staining based flow cytometric analysis (reference value: 1.96 %); assay type: functional
[27] = Induction of apoptosis in mouse BaF3 cells stably expressing KIF5B-RET-G810C mutant assessed as necrotic cells at 900 nM measured after 48 hrs by Annexin V-FITC/7-AAD staining based flow cytometric analysis (reference value: 2.89 %); assay type: functional
[28] = Bioavailability in male ICR mouse at 10 mg/kg, ip measured after 24 hrs by LC-MS/MS analysis; assay type: ADME, organism-based; conditions: in vivo

Sequence of Protein cereblon/Eukaryotic peptide chain release factor GTP-binding subunit ERF3A (Mus musculus) (Q8C7D2 whole entry, looked up): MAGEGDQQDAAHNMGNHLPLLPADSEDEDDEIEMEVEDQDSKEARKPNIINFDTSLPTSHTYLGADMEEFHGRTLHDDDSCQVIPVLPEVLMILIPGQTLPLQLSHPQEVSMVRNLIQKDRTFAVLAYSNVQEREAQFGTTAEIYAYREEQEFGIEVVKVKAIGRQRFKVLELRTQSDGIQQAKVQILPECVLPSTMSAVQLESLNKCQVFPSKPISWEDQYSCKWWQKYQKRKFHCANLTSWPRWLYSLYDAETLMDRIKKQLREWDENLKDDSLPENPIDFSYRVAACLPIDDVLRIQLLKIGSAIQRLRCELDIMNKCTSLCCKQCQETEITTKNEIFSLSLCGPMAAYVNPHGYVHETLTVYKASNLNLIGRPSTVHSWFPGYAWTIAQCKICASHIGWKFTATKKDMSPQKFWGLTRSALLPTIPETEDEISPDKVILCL
Sequence of Protein cereblon/Eukaryotic peptide chain release factor GTP-binding subunit ERF3A (Mus musculus) (Q8R050 whole entry, looked up): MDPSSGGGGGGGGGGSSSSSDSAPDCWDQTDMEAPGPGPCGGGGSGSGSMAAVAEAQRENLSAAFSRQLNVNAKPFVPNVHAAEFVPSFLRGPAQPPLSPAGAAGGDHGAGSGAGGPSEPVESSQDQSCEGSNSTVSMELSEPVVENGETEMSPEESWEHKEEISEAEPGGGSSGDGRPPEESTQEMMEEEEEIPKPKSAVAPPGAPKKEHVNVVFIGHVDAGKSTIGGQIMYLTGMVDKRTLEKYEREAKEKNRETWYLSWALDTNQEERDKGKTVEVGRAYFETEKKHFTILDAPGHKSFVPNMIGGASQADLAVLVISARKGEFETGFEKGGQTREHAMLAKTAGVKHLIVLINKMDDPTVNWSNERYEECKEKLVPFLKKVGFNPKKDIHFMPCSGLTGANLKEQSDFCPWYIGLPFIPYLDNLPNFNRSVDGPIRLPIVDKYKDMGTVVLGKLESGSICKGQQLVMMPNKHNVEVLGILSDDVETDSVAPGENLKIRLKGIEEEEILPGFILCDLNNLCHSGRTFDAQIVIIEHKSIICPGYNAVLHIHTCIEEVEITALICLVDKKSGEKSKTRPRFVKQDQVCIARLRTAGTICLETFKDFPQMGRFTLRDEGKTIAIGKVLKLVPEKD
Sequence of Protein cereblon/Proto-oncogene tyrosine-protein kinase receptor Ret/Kinesin-1 heavy chain (Homo sapiens) (P07949 whole entry, looked up): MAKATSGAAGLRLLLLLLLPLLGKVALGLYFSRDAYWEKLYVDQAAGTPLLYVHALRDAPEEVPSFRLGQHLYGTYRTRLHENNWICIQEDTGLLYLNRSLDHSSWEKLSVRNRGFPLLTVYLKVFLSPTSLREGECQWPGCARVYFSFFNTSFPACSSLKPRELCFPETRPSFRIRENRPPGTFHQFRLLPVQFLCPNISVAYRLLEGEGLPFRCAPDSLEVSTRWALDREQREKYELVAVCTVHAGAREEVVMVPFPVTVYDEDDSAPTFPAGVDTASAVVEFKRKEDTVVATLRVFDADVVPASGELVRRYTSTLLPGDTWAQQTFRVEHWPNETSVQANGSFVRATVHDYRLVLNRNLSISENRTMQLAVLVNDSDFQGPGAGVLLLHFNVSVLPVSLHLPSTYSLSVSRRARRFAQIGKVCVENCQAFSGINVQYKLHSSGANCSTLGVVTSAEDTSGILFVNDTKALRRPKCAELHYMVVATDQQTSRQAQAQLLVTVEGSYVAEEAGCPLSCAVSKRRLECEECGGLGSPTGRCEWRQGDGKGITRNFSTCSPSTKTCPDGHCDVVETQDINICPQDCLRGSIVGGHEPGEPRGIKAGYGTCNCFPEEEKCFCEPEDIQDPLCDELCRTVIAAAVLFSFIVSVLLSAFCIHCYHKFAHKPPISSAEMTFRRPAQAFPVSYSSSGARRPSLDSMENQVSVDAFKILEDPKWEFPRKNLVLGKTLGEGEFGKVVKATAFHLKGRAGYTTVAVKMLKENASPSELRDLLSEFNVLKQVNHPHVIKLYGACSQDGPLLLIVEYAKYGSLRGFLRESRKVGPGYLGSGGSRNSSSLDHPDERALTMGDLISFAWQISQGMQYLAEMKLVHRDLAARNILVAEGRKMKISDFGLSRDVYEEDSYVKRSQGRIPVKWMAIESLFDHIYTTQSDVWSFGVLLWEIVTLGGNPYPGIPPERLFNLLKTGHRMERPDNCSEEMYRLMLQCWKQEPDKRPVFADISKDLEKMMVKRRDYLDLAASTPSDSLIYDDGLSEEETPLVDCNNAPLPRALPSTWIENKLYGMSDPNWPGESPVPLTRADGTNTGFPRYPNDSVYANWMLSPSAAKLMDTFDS
Sequence of Protein cereblon/Proto-oncogene tyrosine-protein kinase receptor Ret/Kinesin-1 heavy chain (Homo sapiens) (P33176 whole entry, looked up): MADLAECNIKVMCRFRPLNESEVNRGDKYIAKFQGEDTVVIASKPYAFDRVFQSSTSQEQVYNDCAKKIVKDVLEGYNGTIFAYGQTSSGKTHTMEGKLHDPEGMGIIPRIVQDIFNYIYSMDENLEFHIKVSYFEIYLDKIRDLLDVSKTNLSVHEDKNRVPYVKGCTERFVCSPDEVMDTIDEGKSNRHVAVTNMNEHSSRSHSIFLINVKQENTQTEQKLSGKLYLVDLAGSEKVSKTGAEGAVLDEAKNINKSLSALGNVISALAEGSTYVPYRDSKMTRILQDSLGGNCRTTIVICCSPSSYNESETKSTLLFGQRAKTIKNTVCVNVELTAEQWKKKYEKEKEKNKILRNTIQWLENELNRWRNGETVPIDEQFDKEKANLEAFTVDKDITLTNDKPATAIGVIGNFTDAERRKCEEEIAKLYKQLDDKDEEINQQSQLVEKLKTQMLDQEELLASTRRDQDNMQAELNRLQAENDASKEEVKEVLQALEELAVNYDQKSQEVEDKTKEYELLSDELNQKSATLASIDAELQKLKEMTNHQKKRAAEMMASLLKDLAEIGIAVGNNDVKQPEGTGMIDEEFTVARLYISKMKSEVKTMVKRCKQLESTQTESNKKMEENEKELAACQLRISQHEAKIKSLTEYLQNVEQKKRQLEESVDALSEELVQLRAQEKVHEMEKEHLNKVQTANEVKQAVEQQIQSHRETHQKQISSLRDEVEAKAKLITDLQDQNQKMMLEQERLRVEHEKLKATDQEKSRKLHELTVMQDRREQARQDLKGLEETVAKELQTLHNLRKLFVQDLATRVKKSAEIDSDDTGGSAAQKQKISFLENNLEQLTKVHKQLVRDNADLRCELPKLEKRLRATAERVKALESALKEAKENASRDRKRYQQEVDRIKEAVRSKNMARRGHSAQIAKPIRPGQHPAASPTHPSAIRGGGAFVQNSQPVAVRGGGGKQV
Sequence of Protein cereblon/Proto-oncogene tyrosine-protein kinase receptor Ret/Kinesin-1 heavy chain (Homo sapiens) (Q96SW2 whole entry, looked up): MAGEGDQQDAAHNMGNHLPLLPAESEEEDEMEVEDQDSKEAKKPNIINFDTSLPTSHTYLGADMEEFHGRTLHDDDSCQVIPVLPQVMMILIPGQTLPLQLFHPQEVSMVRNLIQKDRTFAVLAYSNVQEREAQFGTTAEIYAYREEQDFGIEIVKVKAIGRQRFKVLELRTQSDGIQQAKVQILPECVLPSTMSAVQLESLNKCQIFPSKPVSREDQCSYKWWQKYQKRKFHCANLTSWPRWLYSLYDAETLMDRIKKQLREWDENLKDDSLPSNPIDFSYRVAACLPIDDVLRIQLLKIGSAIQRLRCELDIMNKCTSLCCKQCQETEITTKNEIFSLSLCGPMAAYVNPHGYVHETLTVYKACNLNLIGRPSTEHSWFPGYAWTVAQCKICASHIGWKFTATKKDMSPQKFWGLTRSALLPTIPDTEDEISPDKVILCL

SMILES: COc1ccc(CN2C3CC2CN(c2ccc(-c4cc(-c5cnn(C6CCN(CCCCCC#Cc7cccc8c7CN(C7CCC(=O)NC7=O)C8=O)CC6)c5)cn5ncc(C#N)c45)cn2)C3)cn1 (stereo not drawn)
- Activity (BaF3 [1]): 60%
- Activity (BaF3 [2]): 73%
- Activity [3]: 61.6%
- DC50 [4]: 17.2 nM
- DC50 [5]: 73.8 nM
- Activity [6]: inactive
- Activity (BaF3 [7]): inactive
- IC50 (BaF3 [8]): 40 nM
- Ratio IC50 [9]: ~8.8
- fold change (FC) [10]: 1
- fold change (FC) [11]: 1
- fold change (FC) [12]: 0.2
- fold change (FC) [13]: 0.1
- fold change (FC) [14]: 1
- fold change (FC) [15]: 1
- fold change (FC) [16]: 1
- fold change (FC) [17]: 1
- fold change (FC) [18]: 0.9
- viability at 0.0111 µM [19]: 83.8%
- Activity [20]: 1.84%
- Activity [21]: 3.02%
- Activity [22]: 1.79%
- viability at 0.3 µM [23]: 50.2%
- viability at 0.0333 µM [24]: 85.5%
- Activity [25]: 2.61%
- Activity [26]: 3.71%
- Activity [27]: 1.26%
- bioavailability [28]: 17.3%
